From PMC7487564 (Cell Communication and Signaling : CCS, 2020)

Columns and labels:
PVR = molecular target: T1, PVR (Homo sapiens, UniProt P15151); test: Biolayer interferometry-based (BLI) binding assay; conditions: for Kd: read-out: KD to PVR protein (BLI)
T1 construct: purchased ACRO Biosystem CD5-H82E3
T1 sequence (P15151 21-417): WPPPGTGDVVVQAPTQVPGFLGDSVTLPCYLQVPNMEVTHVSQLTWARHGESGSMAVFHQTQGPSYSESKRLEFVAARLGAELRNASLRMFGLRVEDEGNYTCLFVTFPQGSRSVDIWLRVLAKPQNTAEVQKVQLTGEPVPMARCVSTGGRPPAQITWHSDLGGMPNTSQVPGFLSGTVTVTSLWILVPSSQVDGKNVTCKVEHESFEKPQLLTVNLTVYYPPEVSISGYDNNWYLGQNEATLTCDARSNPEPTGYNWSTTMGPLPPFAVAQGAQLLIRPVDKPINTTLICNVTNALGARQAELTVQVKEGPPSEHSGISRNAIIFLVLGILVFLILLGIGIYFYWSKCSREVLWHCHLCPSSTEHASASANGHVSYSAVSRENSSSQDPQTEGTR
Experimental: BLI experiments were performed in PBS supplemented with 0.1% (w/v) BSA, 0.002% (v/v) Tween 20 and 1% DMSO, with an Octet RED96 instrument (FortéBio), operating at 25 °C. The biotinylated PVR carrying a C-terminal AVITAG (CD5-H82E3, ACRO Biosystem) was loaded to saturation onto Super Streptavidin (SSA) biosensors (Pall/FortéBio), and blocked with 200 μL biotin (5 μg/mL) for 60 s. Before the assay, the PVR-labeled SSA sensors were pre-soaked in binding buffer for 30 min. The twenty-two small molecule compounds were preliminary screened for binding to PVR at a single concentration of 100 μM. […] The dissociation was monitored by washing the ligand biosensors from the analyte solution to binding buffer for 60 s. Double reference-subtracted sensorgrams were analyzed using Data Analysis 9.0 (Pall/Forte Bio), and binding responses at the end of the association phase were reported.

human TIGIT/PVR = molecular target: T2, human TIGIT/PVR (Homo sapiens, UniProt P15151); test: Cell based blocking assay, CHOK1-hTIGIT cells and human PVR-Fc; conditions: CHOK1-hTIGIT cells, highest concentration
T2 construct: purchased ACRO Biosystem CD5-H82F6; host or cells: PVR-Fc was purchased; TIGIT was expressed on CHO-K1 cells by lentiviral infection (CHOK1-hTIGIT)
T2 sequence (P15151 28-343 limits assumed): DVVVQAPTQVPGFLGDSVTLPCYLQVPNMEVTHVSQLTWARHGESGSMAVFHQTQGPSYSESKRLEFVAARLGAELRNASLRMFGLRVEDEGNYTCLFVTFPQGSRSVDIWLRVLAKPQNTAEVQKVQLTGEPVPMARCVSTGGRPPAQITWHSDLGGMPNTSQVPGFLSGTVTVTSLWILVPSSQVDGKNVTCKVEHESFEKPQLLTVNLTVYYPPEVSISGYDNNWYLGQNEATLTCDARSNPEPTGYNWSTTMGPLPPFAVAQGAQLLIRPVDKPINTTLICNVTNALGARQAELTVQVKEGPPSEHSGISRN
Experimental: Cell based blocking assay was performed according to the previous report [30]. […] Then the mixture of PVR protein and compounds were incubated with CHOK1-TIGIT cells for another 30 min, followed by incubation with detection antibody anti-human IgG-PE (eBioscience) for 30 min. Cells were then washed with FACS buffer to remove the unbound fluorescent antibodies, acquired on a FACS Caliber™ (BD Biosciences) and analyzed by FlowJo. […] Cells incubated with corresponding Fc tagged protein and anti-human IgG-PE served as positive control, while cells only incubated with anti-human Fc-PE served as negative control. The mean fluorescent intensity (MFI) was recorded for calculating the blocking efficiency as the formula: Blocking%=MFIof positive control−MFIof tested compounds/MFIof positive control×100%.

[1] = Potential side effects in mice; assay type: in vivo; conditions: different concentrations administrated for at least one week
MC38 tumor = test: Anti-tumor experiment and ex vivo assays, MC38 tumor-bearing mice; assay type: in vivo, C57BL/6 mice
Experimental: All mice experimental procedures were approved by the Ethics Committee of Zhengzhou University. Six-week-old female C57BL/6 mice (Vital River Laboratories, China) were maintained in a specific pathogen-free facility. Food and water were supplied ad libitum. Mice were acclimatized for about 1 week before the experiment. C57BL/6 mice were subcutaneously (s.c.) injected on the right flank with 1 × 10^6 syngeneic MC38 cells in 200 μL PBS. One week later, tumor-bearing mice were randomized into groups of negative control (normal saline with 3% DMSO and 0.5% Tween-80), 0.5, 1.5, 5 and 15 mg/kg of compounds or anti-TIGIT and isotype control groups. Mice were treated with 200 μL control or indicated compound through intraperitoneal (i.p.) injection every other day for 2 weeks, or with 200 μg anti-TIGIT (clone:1G9, Bioxcell) or isotype control mouse IgG (I5381, Sigma) through i.p. injection every 3 days for 2 weeks. Tumor sizes were measured using a digital caliper, and tumor volumes were calculated as the formula: V=1/2×alength×bwidth×cheight
For indicated immune cell depletion models, MC38 mice were injected with 250 μg anti-CD4 (clone: GK1.5), 200 μg anti-CD8 (clone: YTS169.4) or matched rat IgG control (I4131, Sigma), 200 μg anti-NK1.1 (clone: PK136) or matched mouse IgG control (I5381, Sigma) the day before the start of tumor inoculation, as well as weekly thereafter, resulting in a total of 3 injections per mouse. The depletion efficacy was confirmed by flow cytometry analysis with the blood sample of mice treated with indicated antibodies for 6 days. Mouse anti-CD45 FITC (clone: 30-F11, eBioscience), anti CD3 PerCP-eFluor710 (clone: 17A2, eBioscience), anti-CD8α APC (clone: 53–6.7, eBioscience), anti-CD4 APC (clone: GK1.5, eBioscience) and anti-NK1.1 PE (clone: PK136, eBioscience) were used.
Upon completion of treatment, MC38 tumor-bearing mice were sacrificed, and the tumors were dissected and digested by 100 U/mL collagenase IV (Invitrogen) and 100 U/mL Dnase I (Sigma) for 60 min, and then filtered through a 70 μm nylon cell strainer to single cell suspension. The cells were incubated with mouse anti-CD45 FITC (clone: 30-F11, eBioscience), mouse anti-CD3 PerCP-eFluor710 (clone: 17A2, eBioscience), and mouse anti-CD8α APC (clone: 53–6.7, eBioscience) to detect the frequency of infiltrating CD8^+ T cells. For functional assay, the tumor-infiltrating lymphocytes were isolated from tumor cell suspension by discontinuous Percoll density gradients (40 and 70%) (GE Healthcare). The isolated tumor-infiltrating lymphocytes, splenocytes and draining lymph node cells prepared by gentle mechanical disruption were stimulated with or without 20 ng/mL phorbol 12-myristate 13-acetate (PMA, Sigma) and 1 μMionomycin (Sigma) in the presence of protein transport inhibitor for 4 h. The following procedure of intracellular cytokine staining assay was performed as mentioned above, and the antibodies for the staining were mouse anti-CD3 PerCP-eFluor710, mouse anti-CD8α PE, and mouse anti-IFN-γ APC (clone: XMG1.2, eBioscience).

MC38 cells = test: Cell viability assay (MTT); assay type: cell-based, murine; conditions: 12.5 to 100 μM, 3 days
Experimental: The cytotoxic effects of indicated compound on MC38 cells were determined by MTT assay. MC38 cells were seeded into 96-well plates at a density of 3000 cells/well and allowed to grow for adhesion. Cells were treated with medium with 1% DMSO as negative control or with a series dilution of indicated compound at a concentration range of 12.5 to 100 μM. Cell viability was ascertained using MTT reagent (Sigma) dissolved in 5 mg/mL PBS and incubated at 37 °C for 4 h in the following 3 days. Formazan crystals formed by viable cells were dissolved in 150 μL DMSO in each well. MTT reduction was quantified by measuring the absorbance at 490 nm.

## O=C(O[C@@H]1Cc2c(O)cc(O)cc2O[C@@H]1c1ccc(O)c(O)c1)c1cc(O)c(O)c(O)c1 [SMC 22, Epicatechin gallate]
PVR; series of concentrations
  Kd: 5.9 µM
Human TIGIT/PVR
  blocking efficacy of TIGIT/PVR: extremely low blocking efficacy

## COc1cc(/C=C/C(=O)CC(=O)/C=C/c2ccc(O)c(OC)c2)ccc1O [SMC 6, Curcumin]
PVR; series of concentrations
  Kd: 42 µM
Human TIGIT/PVR
  blocking efficacy of TIGIT/PVR: 52%

## N[C@@H](Cc1cc(I)c(Oc2ccc(O)c(I)c2)c(I)c1)C(=O)O [SMC 14, Liothyronine]
[1]
  side effects on mental state, weight and diet of the mice: no obvious effects
MC38 tumor; 0.5 mg/kg i.p. every other day
  anti-tumor effects, MC38 tumor model: almost no anti-tumor effects
MC38 tumor; 5 mg/kg, MC38 model, depletion antibodies
  anti-tumor effects with CD4+, CD8+ T and NK cells depleted: almost disappeared
MC38 tumor; 15 mg/kg compared with 5 mg/kg, i.p. every other day
  anti-tumor effects, MC38 tumor model: equivalent
MC38 tumor; high dose 5 mg/kg i.p. every other day
  MC38 tumor growth: significantly inhibit
MC38 tumor; low dose 1.5 mg/kg i.p. every other day
  MC38 tumor growth: significantly inhibit
MC38 cells
  cell viability of MC38 cells (MTT): did not impact the cell viability

## O=C1/C(=C2\Nc3ccccc3C2=O)Nc2ccccc21 [SMC 2, Indigo]
PVR; series of concentrations
  KD to PVR protein (BLI): could not fit a determined KD value
PVR; single concentration of 100 μM
  BLI response, primary screening: relatively good response
